The target in this experiment is T1, human μ-opiate receptor (Homo sapiens, UniProt P35372).
T1 construct: purchased Nen company, Zaventem, Belgium RB-HOM; host or cells: CHO-K1 cells (membrane preparation)
In words: Affinity for the human μ-opiate receptor ([3H]-naloxone displacement, SPA, CHO-K1 membrane preparation). The following applies: test substance 1 μmole/l, displacement of 1 nmole/l [3H]-naloxone, percentage inhibition of the specific binding; for inhibition at 1 µM: read-out: μ-opioid receptor, % inhibition [1 μM]. Here is the method: Method for Determining the Affinity for the Human μ-Opiate Receptor
The receptor affinity for the human μ-opiate receptor is determined in a homogeneous batch in microtiter plates. For this purpose dilution series of the substances to be tested are incubated for 90 minutes at room temperature with a receptor membrane preparation (15-40 μg protein/250 μl incubation batch) of CHO-K1 cells, which express the human μ-opiate receptor (RB-HOM receptor membrane preparation from the Nen company, Zaventem, Belgium), in the presence of 1 nmole/l of the radioactive ligand [^3H]-naloxone (NET719, Nen company, Zaventem, Belgium) and 1 mg WGA-SPA beads (wheat germ agglutinin SPA beads from Amersham/Pharmacia, Freiburg, Germany) in a total volume of 250 μl. 50 mmole/l of Tris-HCl supplemented with 0.05% sodium azide and with 0.06% bovine serum albumin is used as incubation buffer. In order to determine the non-specific binding, 25 μmole/l of naloxone is additionally added. After the end of the 90 minutes' incubation time the microtiter plates are centrifuged for 20 minutes at 1000 g and the radioactivity is measured in a beta counter (Microbeta-Trilux, PerkinElmer Wallac, Freiburg, Germany). The percentage displacement of the radioactive ligand from its binding to the human μ-opiate receptor at a concentration of the test substances of 1 μmole/l is determined and is given as percentage inhibition of the specific binding.

Broadly, the inhibition is how much of the control response was suppressed.

T1 sequence (P35372 whole entry): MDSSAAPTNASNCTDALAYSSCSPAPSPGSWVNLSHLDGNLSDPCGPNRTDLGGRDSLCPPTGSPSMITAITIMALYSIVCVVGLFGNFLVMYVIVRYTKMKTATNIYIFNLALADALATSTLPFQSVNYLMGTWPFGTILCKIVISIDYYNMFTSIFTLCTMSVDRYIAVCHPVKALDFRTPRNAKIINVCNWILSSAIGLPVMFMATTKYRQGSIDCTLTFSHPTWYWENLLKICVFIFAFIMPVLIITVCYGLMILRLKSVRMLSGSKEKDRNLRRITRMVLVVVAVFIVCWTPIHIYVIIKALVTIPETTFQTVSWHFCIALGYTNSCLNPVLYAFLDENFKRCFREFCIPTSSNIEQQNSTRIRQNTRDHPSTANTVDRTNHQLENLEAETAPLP

Take `CN(C)C(c1ccc(F)cc1)C1CCC(C(c2nc(Cc3ccccc3)c(N3CCCC3)o2)N2CCCCC2)CC1` (stereo not shown) [compound 17, [{4-[(4-benzyl-5-pyrrolidin-1-yl-oxazol-2-yl)-piperidin-1-yl-methyl]-cyclohexyl}-(4-fluorophenyl)-methyl]-dimethylamine]: the inhibition at 1 µM turned out to be 76%.
On the same count and under the same terms, the same measure for `CN(C)C(c1ccc(F)cc1)C1CCC(C(c2nc(Cc3ccccc3)c(N3CCOCC3)o2)N(C)c2ccccc2)CC1` (stereo not shown) [compound 18, ((4-benzyl-5-morpholin-4-yl-oxazol-2-yl)-{4-[dimethylamino-(4-fluorophenyl)-methyl]-cyclohexyl}-methyl)-methylphenylamine]: 65%; for `CC1CCN(c2oc(C(C3CCC(C(c4ccc(F)cc4)N(C)C)CC3)N(C)c3ccccc3)nc2Cc2ccccc2)CC1` (stereo not shown) [compound 19, ([4-benzyl-5-(4-methylpiperidin-1-yl)-oxazol-2-yl]-{4-[dimethylamino-(4-fluorophenyl)-methyl]-cyclohexyl}-methyl)-methylphenylamine]: 63%; for `CCN(CC)C(c1nc(Cc2ccccc2)c(N2CCC(C)CC2)o1)C1CCC(C(c2ccc(Cl)cc2)N(C)C)CC1` (stereo not shown) [compound 20, ([4-benzyl-5-(4-methylpiperidin-1-yl)-oxazol-2-yl]-{4-[(4-chlorophenyl)-dimethylaminomethyl]-cyclohexyl}-methyl)-diethylamine]: 63%.
As for `CCN(CC)C(c1nc(Cc2ccccc2)c(N(C)Cc2ccccc2)o1)C1CCC(C(c2ccc(Cl)cc2)N(C)C)CC1` (stereo not shown) [compound 21, Benzyl-[4-benzyl-2-({4-[(4-chlorophenyl)-dimethylaminomethyl]-cyclohexyl}-diethylaminomethyl)-oxazol-5-yl]-methylamine], the inhibition at 1 µM was found to be 72%.
On to `CN(Cc1ccccc1)c1oc(C(C2CCC(C(c3ccc(Cl)cc3)N(C)C)CC2)N(C)c2ccccc2)nc1Cc1ccccc1` (stereo not shown) [compound 22, Benzyl-{4-benzyl-2-[{4-[(4-chlorophenyl)-dimethylaminomethyl]-cyclohexyl}-(methylphenylamine)-methyl]-oxazol-5-yl}-methylamine], for which the “μ-opioid receptor, % inhibition [1 μM]” value is given as 64%.
Take `CN(C)C(c1cccs1)C1CCC(C(c2nc(Cc3ccccc3)c(N3CCC(Cc4ccccc4)CC3)o2)N2CCCCC2)CC1` (stereo not shown) [compound 23, [(4-{[4-benzyl-5-(4-benzyl-piperidin-1-yl)-oxazol-2-yl]-piperidin-1-yl-methyl}-cyclohexyl)-thiophen-2-yl-methyl]-dimethylamine]: the inhibition at 1 µM is 70%.
Still for that read-out and setting: the same measure for `CC1CCN(c2oc(C(C3CCC(C(c4cccs4)N(C)C)CC3)N3CCCCC3)nc2Cc2ccccc2)CC1` (stereo not shown) [compound 24, [(4-{[4-benzyl-5-(4-methylpiperidin-1-yl)-oxazol-2-yl]-piperidin-1-yl-methyl}-cyclohexyl)-thiophen-2-yl-methyl]-dimethylamine]: 70%.
Same read-out and setting: the same measure for `CN(Cc1ccccc1)c1oc(C(C2CCC(C(c3cccs3)N(C)C)CC2)N2CCCCC2)nc1Cc1ccccc1` (stereo not shown) [compound 25, Benzyl-(4-benzyl-2-{[4-(dimethylamino-thiophen-2-yl-methyl)-cyclohexyl]-piperidin-1-yl-methyl}-oxazol-5-yl)-methylamine]: 80%; for `CN(C)C(c1cccs1)C1CCC(C(c2nc(Cc3ccccc3)c(N3CCN(c4ccccc4)CC3)o2)N2CCCCC2)CC1` (stereo not shown) [compound 26, [(4-{[4-benzyl-5-(4-phenylpiperazin-1-yl)-oxazol-2-yl]-piperidin-1-yl-methyl}-cyclohexyl)-thiophen-2-yl-methyl]-dimethylamine]: 85%; for `CCN(CC)C(c1nc(Cc2ccccc2)c(N2CCC(Cc3ccccc3)CC2)o1)C1CCC(C(c2cccs2)N(C)C)CC1` (stereo not shown) [compound 27, {[4-benzyl-5-(4-benzyl-piperidin-1-yl)-oxazol-2-yl]-[4-(dimethylamino-thiophen-2-yl-methyl)-cyclohexyl]-methyl}-diethylamine]: 78%.
The same measure, in the same setting: the same measure for `CCN(CC)C(c1nc(Cc2ccccc2)c(N2CCN(Cc3ccccc3)CC2)o1)C1CCC(C(c2cccs2)N(C)C)CC1` (stereo not shown) [compound 28, {[4-benzyl-5-(4-benzyl-piperazin-1-yl)-oxazol-2-yl]-[4-(dimethylamino-thiophen-2-yl-methyl)-cyclohexyl]-methyl}-diethylamine]: 72%; for `CCN(CC)C(c1nc(Cc2ccccc2)c(N2CCC(C)CC2)o1)C1CCC(C(c2cccs2)N(C)C)CC1` (stereo not shown) [compound 29, {[4-benzyl-5-(4-methylpiperidin-1-yl)-oxazol-2-yl]-[4-(dimethylamino-thiophen-2-yl-methyl)-cyclohexyl]-methyl}-diethylamine]: 95%; for `CCN(CC)C(c1nc(Cc2ccccc2)c(N(C)Cc2ccccc2)o1)C1CCC(C(c2cccs2)N(C)C)CC1` (stereo not shown) [compound 30, Benzyl-(4-benzyl-2-{diethylamino-[4-(dimethylaminothiophen-2-yl-methyl)-cyclohexyl]-methyl}-oxazol-5-yl)-methylamine]: 92%.
Regarding `CCN(CC)C(c1nc(Cc2ccccc2)c(N2CCN(c3ccccc3)CC2)o1)C1CCC(C(c2cccs2)N(C)C)CC1` (stereo not shown) [compound 31, {[4-benzyl-5-(4-phenylpiperazin-1-yl)-oxazol-2-yl]-[4-(dimethylamino-thiophen-2-yl-methyl)-cyclohexyl]-methyl}-diethylamine], the inhibition at 1 µM worked out at 62%.
Same read-out and setting: the value for `CN(C)C(c1cccs1)C1CCC(C(c2nc(Cc3ccccc3)c(N3CCC(Cc4ccccc4)CC3)o2)N2CCN(Cc3ccccc3)CC2)CC1` (stereo not shown) [compound 32, ({4-[[4-benzyl-5-(4-benzylpiperidin-1-yl)-oxazol-2-yl]-(4-benzylpiperazin-1-yl)-methyl]-cyclohexyl}-thiophen-2-yl-methyl)-dimethylamine] was 75%; that for `CC1CCCN(c2oc(C(C3CCC(C(c4ccc(F)cc4)N(C)C)CC3)N3CCCCC3)nc2Cc2ccccc2)C1` (stereo not shown) [compound 33, [(4-{[4-benzyl-5-(3-methylpiperidin-1-yl)-oxazol-2-yl]-piperidin-1-yl-methyl}-cyclohexyl)-(4-fluorophenyl)-methyl]-dimethylamine] was 65%; that for `CCN(CC)C(c1nc(Cc2ccccc2)c(N(C)CCc2ccccc2)o1)C1CCC(C(c2ccc(F)cc2)N(C)C)CC1` (stereo not shown) [compound 34, [4-benzyl-2-(diethylamino-{4-[dimethylamino-(4-fluorophenyl)-methyl]-cyclohexyl}-methyl)-oxazol-5-yl]-methylphenethylamine] was 84%.
On the same count and under the same terms, the same measure for `CCN(CC)c1oc(C(C2CCC(C(c3ccc(F)cc3)N(C)C)CC2)N(CC)CC)nc1Cc1ccccc1` (stereo not shown) [compound 35, [4-benzyl-2-(diethylamino-{4-[dimethylamino-(4-fluorophenyl)-methyl]-cyclohexyl}-methyl)-oxazol-5-yl]-diethylamine]: 61%.
Still for that read-out and setting: the value for `CCN(CC)C(c1nc(Cc2ccccc2)c(N2CCCC(C)C2)o1)C1CCC(C(c2ccc(F)cc2)N(C)C)CC1` (stereo not shown) [compound 36, ([4-benzyl-5-(3-methylpiperidin-1-yl)-oxazol-2-yl]-{4-[dimethylamino-(4-fluorophenyl)-methyl]-cyclohexyl}-methyl)-diethylamine] was 69%; that for `CC1CC(C)CN(c2oc(C(C3CCC(C(c4ccc(F)cc4)N(C)C)CC3)N(C)c3ccccc3)nc2Cc2ccccc2)C1` (stereo not shown) [compound 37, ([4-benzyl-5-(3,5-dimethylpiperidin-1-yl)-oxazol-2-yl]-{4-[dimethylamino-(4-fluorophenyl)-methyl]-cyclohexyl}-methyl)-methylphenylamine] was 68%.
With `CN(CCc1ccccc1)c1oc(C(C2CCC(C(c3ccc(F)cc3)N(C)C)CC2)N(C)c2ccccc2)nc1Cc1ccccc1` (stereo not shown) [compound 38, {4-benzyl-2-[{4-[dimethylamino-(4-fluorophenyl)-methyl]-cyclohexyl}-(methylphenylamine)-methyl]-oxazol-5-yl}-methylphenethylamine], the “μ-opioid receptor, % inhibition [1 μM]” value was 62%.
On to `CCN(CC)c1oc(C(C2CCC(C(c3ccc(Cl)cc3)N(C)C)CC2)N2CCCCC2)nc1Cc1ccccc1` (stereo not shown) [compound 39, [4-benzyl-2-({4-[(4-chlorophenyl)-dimethylaminomethyl]-cyclohexyl}-piperidin-1-yl-methyl)-oxazol-5-yl]-diethylamine], for which the inhibition at 1 µM is 75%.
On the same count and under the same terms, the same measure for `CC1CCCN(c2oc(C(C3CCC(C(c4ccc(Cl)cc4)N(C)C)CC3)N3CCCCC3)nc2Cc2ccccc2)C1` (stereo not shown) [compound 40, [(4-{[4-benzyl-5-(3-methylpiperidin-1-yl)-oxazol-2-yl]-piperidin-1-yl-methyl}-cyclohexyl)-(4-chlorophenyl)-methyl]-dimethylamine]: 60%; for `CCN(CC)C(c1nc(Cc2ccccc2)c(N2CC(C)CC(C)C2)o1)C1CCC(C(c2ccc(Cl)cc2)N(C)C)CC1` (stereo not shown) [compound 41, ([4-benzyl-5-(3,5-dimethylpiperidin-1-yl)-oxazol-2-yl]-{4-[(4-chlorophenyl)-dimethylaminomethyl]-cyclohexyl}-methyl)-diethylamine]: 64%.

Values taken from patent publication US7608619B2, “Substituted oxazole compounds with analgesic activity” (Gruenenthal GmbH, priority 2005, dated 2009).
